Article PMC9574867, “Discovery and Characterization of Synthesized and FDA-Approved Inhibitors of Clostridial and Bacillary Collagenases” (Journal of Medicinal Chemistry, 2022)
≈ marks a conversion by molar mass, not a printed value. Entries after “also recorded” stand apart in the source; their conditions may differ. Read-outs that look alike come from different tables or passages of the source.

Key:
[1] = biological target: MMP-8; set-up: method as in PMID 22529049, PMID 12217351, PMID 12217351; details: known inhibitors, Figure 1a; cited from earlier work
[2] = tested on: ColH; details: Figure 1b, cited from earlier work
[3] = biological target: ColQ1-FL (Bacillus cereus, UniProt B9J3S4); assay type: biochemical; details: 1 mg/mL Col I, 50 ng ColQ1-FL, SDS-PAGE
[4] = Stability of 27 with LC-MS in DMEM medium; assay type: physicochemical; details: 200 μM in DMEM, 37 °C, 5 h, 5% CO2, LC-MS
Procedure: We also examined the hydroxamate compounds 27, 28, 29, 31, 32, and 33. […] Intrigued by the results of the hydroxamate compounds, we investigated their stability with LC-MS in the conditions of the NHDF infection model to obtain a potential explanation for the observed findings. We used 27 as a representative example for this compound class.
After the incubation, 2 μL of the compound was transferred to LC-MS vials containing 200 μL of acetonitrile and LC-MS spectra were measured. Three controls were included: (i) 27 in DMEO, (ii) 27 in DMEM without incubation, and (iii) DMEM medium.

[5] = in vitro; details: human, NHDF cells (normal human dermal fibroblasts)
[6] = biological target: T1, MMP-3 (Homo sapiens, UniProt P08254); assay: MMP inhibition assay, MMP-3; assay type: biochemical
T1 construct: catalytic domains of three human MMPs; purchased Sigma-Aldrich
Procedure: (§1) To assess the selectivity of the compounds over human MMPs and on other bacterial collagenases, selected compounds were tested against ColG-CU and ColH-PD from C. histolyticum and ColA-CU from B. cereus strain ATCC14579. In addition, the compounds were tested on catalytic domains of three human MMPs, which are characterized by different depths of the S1′ binding pocket (MMP-1 (shallow), −2 (intermediate), and −3 (deep)). They were also tested against other important human off-targets, which are involved in gene expression and the processing of TNF-α; these include HDAC-3, -8, TACE (ADAM-17),[33],[34] and COX-1.
(§2) The MMP inhibition assay (Sigma-Aldrich, Saint Louise, MO) was performed as previously reported and in accordance with the manufacturer’s instructions. The fluorescence signals were measured in a CLARIOstar plate reader (BMG LABTECH, Ortenberg, Germany) at a concentration of 100 μM.

[7] = in vitro; details: human, HepG2 cells (hepatocellular carcinoma)
[8] = tested on: NHDF cells infected with B. cereus; assay: NHDF infection model, cell morphology/attachment and fibrillar collagen (picrosirius red); assay type: cell-based, human
[9] = biological target: T2, HDAC-8 (Homo sapiens, UniProt Q9BY41); assay: Human off-target inhibition, HDAC-8; assay type: biochemical
T2 sequence (Q9BY41 1-377): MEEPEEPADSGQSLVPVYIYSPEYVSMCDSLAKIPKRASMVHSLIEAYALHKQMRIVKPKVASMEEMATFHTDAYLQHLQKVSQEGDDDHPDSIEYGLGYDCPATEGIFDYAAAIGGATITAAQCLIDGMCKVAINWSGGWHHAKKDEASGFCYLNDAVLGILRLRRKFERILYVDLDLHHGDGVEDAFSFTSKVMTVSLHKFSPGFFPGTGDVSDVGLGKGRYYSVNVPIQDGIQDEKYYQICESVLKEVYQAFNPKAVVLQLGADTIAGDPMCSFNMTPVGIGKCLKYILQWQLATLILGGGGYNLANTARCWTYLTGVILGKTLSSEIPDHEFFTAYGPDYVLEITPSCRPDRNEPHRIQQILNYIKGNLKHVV
Procedure: as §1

[10] = biological target: T3, ColH-PD (Hathewaya histolytica, UniProt Q46085); assay: biochemical; assay type: biochemical, C. histolyticum; details: for inhibition at 100 µM: read-out: Percent inhibition of ColH-PD
[11] = biological target: ColG-CU (Hathewaya histolytica, UniProt Q9X721); assay: biochemical; assay type: biochemical, C. histolyticum; details: for inhibition at 100 µM: read-out: Percent inhibition of ColG-CU
[12] = biological target: TACE (ADAM-17) (Homo sapiens, UniProt P78536); assay: Human off-target inhibition, TACE; assay type: biochemical
Procedure: as §1

[13] = tested on: B. cereus AH187; assay: B. cereus growth inhibition assay; assay type: cell-based; details: Bacillus cereus, read-out: MIC50 (µM) AH187
[14] = in vitro; details: human, HEK293 cells (embryonal kidney)
[15] = biological target: T4, MMP-2 (Homo sapiens, UniProt P08253); assay: MMP inhibition assay, MMP-2; assay type: biochemical
T4 construct: catalytic domains of three human MMPs; purchased Sigma-Aldrich
Procedure: as §1, §2

[16] = biological target: T5, MMP-1 (Homo sapiens, UniProt P03956); assay: MMP inhibition assay, MMP-1; assay type: biochemical
T5 construct: catalytic domains of three human MMPs; purchased Sigma-Aldrich
T5 sequence (P03956 98-276 limits assumed): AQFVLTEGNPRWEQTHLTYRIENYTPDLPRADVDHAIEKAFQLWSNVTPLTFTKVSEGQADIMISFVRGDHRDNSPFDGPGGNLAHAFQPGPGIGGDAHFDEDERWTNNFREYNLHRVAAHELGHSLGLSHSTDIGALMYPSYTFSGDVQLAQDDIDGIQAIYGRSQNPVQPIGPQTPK
Procedure: as §1, §2

[17] = biological target: HDAC-3 (Homo sapiens, UniProt O15379); assay: Human off-target inhibition, HDAC-3; assay type: biochemical
Procedure: as §1

[18] = tested on: B. cereus collagenases released in the NHDF infection model; assay type: cell-based, B. cereus AH187
[19] = biological target: T3, ColH-PD; assay type: biochemical, C. histolyticum
[20] = biological target: T6, ColA-CU (Bacillus cereus, UniProt Q81BJ6); assay type: biochemical, B. cereus; details: rapid dilution
[21] = in vitro; details: dog, MDCK II cells (Madin–Darby canine kidney II)
[22] = biological target: T7, ColQ1-CU (Bacillus cereus, UniProt B9J3S4); assay type: biochemical, B. cereus; details: rapid dilution
[23] = biological target: T7, ColQ1-CU; assay: biochemical; set-up: species or system B. cereus strain Q1
[24] = biological target: T6, ColA-CU; assay: biochemical; assay type: biochemical, B. cereus strain ATCC14579; details: for inhibition at 100 µM: read-out: Percent inhibition of ColA-CU
[25] = biological target: T7, ColQ1-CU; assay type: binding, B. cereus; details: intact protein HPLC-MS, overnight treatment
[26] = tested on: Galleria mellonella larvae; assay: Galleria mellonella larvae treated with compound only in PBS; assay type: in vivo; details: no bacteria
Procedure: Figure 8 Survival analysis of Galleria mellonella larvae treated with Bacillus cereus AH187 with and without 14 and tiludronate disodium. Each curve represents results of three independent experiments; the statistical difference between groups treated with 100, 50, and 25 μM of compound 14 and B. cereus AH187 and with the group treated only with B. cereus AH187 is p < 0.0001, p = 0.0039, and p = 0.0173, respectively. The statistical difference between groups treated with 100 μM tiludronate disodium and with B. cereus AH187 is p = 0.0032 (log-rank test). The survival rate for the larvae treated with compound 14 and tiludronate disodium in PBS was 100%.
G. mellonella larvae were purchased from a fishing store. Injections were carried out using an LA120 syringe pump (Landgraf Laborsysteme, Langenhagen, Germany) equipped with 1 mL Injekt-F tuberculin syringes (B. Braun, Melsungen, Germany) and Sterican 0.30 × […], 30 G × 1.5 needles (B. Braun). The larvae were divided into five groups depending on their treatment: (i) sterile PBS, (ii) no injection, (iii) only compound, (iv) BC AH187 bacterial suspension, and (v) BC AH187 bacterial suspension with compound. Larvae were incubated at 37 °C for 3 days and inspected twice daily. The total larvae used in all three experiments were 40 larvae per group.

[27] = biological target: COX-1 (Homo sapiens, UniProt P23219); assay: Human off-target inhibition, COX-1; assay type: biochemical
Procedure: as §1

[28] = tested on: B. cereus AH187 infection; assay type: in vivo, Galleria mellonella

T3 sequence (Q46085 331-721 limits assumed): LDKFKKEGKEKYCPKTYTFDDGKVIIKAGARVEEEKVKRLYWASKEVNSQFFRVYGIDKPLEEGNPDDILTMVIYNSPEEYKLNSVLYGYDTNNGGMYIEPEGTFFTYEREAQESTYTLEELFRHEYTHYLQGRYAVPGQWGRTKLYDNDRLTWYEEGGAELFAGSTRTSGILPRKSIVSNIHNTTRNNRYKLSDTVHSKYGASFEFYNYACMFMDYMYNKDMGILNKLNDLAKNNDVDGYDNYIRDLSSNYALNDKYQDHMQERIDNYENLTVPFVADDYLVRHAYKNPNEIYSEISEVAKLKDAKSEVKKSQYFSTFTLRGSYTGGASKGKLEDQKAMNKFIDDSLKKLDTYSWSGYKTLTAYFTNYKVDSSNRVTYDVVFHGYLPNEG
Chain of ColG-CU (Q9X721 111-786): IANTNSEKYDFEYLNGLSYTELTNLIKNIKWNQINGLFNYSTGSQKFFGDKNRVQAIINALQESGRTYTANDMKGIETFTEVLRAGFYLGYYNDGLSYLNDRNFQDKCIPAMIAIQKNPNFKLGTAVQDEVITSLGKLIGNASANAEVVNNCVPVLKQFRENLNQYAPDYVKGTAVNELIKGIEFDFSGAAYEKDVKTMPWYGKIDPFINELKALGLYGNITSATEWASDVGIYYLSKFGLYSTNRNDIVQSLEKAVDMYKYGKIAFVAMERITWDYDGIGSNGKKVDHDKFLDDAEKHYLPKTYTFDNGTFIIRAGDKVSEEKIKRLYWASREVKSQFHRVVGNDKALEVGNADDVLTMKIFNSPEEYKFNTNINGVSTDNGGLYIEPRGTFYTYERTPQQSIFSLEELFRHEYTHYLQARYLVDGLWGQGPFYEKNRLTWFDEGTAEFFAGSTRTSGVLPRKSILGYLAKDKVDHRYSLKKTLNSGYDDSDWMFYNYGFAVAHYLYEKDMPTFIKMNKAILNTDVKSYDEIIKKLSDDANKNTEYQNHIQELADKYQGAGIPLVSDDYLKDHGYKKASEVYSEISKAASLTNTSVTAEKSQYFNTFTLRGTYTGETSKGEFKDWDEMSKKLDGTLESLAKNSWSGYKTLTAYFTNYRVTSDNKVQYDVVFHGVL
T6 sequence (Q81BJ6 93-764): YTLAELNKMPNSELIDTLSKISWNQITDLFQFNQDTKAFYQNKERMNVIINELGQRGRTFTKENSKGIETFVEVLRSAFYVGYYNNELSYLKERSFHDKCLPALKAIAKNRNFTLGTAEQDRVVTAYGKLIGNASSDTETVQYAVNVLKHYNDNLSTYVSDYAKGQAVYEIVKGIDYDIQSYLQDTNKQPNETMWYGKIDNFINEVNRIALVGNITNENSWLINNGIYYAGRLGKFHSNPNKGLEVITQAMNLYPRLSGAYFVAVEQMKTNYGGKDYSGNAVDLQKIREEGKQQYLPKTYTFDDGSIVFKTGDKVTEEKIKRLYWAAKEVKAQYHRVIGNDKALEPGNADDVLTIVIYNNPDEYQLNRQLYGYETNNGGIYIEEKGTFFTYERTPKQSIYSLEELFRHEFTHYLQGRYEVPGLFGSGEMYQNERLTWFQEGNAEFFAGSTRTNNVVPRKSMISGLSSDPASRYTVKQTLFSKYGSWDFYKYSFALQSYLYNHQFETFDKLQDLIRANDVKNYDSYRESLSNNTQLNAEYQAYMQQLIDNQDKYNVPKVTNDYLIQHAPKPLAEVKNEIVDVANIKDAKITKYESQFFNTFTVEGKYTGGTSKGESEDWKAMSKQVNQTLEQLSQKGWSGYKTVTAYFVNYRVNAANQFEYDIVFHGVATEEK
T7 sequence (B9J3S4 94-765 limits assumed): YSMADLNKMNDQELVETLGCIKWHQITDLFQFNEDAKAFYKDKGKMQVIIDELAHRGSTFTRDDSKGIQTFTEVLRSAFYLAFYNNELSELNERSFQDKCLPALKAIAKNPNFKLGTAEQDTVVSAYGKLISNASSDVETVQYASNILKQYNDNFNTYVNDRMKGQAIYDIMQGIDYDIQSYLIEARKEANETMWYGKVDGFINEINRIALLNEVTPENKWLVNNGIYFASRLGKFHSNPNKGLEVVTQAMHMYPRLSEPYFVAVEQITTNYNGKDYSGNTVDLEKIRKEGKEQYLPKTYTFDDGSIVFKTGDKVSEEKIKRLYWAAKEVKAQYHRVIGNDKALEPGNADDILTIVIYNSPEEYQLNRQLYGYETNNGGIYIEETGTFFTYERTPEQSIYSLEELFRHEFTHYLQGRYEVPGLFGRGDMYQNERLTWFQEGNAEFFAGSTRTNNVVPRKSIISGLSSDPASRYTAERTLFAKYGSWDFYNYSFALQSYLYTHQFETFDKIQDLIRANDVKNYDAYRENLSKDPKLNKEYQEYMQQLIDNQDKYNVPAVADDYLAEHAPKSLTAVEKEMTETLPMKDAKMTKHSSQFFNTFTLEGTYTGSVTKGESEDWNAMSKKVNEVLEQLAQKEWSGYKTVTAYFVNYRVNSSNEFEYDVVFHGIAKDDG
T4 sequence (P08253 110-444 limits assumed): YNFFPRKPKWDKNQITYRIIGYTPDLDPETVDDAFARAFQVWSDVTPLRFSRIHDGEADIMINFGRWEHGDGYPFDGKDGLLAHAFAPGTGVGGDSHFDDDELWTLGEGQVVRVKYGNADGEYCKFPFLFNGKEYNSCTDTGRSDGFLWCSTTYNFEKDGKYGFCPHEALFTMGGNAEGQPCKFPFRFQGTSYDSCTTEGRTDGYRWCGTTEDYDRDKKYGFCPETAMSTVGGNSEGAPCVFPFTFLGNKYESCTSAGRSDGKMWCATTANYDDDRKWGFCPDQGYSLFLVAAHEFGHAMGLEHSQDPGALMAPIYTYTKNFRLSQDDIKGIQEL
Chain of HDAC-3 (O15379 whole entry): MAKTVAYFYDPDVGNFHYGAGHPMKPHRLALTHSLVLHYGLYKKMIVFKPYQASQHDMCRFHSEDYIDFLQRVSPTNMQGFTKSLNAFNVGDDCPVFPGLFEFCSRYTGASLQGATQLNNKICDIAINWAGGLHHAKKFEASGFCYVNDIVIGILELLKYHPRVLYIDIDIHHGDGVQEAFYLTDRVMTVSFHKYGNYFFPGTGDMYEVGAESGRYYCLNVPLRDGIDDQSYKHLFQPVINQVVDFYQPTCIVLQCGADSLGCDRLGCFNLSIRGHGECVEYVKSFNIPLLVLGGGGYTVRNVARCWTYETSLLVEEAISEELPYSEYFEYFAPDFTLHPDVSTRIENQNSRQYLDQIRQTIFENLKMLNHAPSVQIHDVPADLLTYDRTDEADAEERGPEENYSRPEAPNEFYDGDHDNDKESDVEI
Chain of HDAC-3 (Q9Y618 395-489 partner limits assumed): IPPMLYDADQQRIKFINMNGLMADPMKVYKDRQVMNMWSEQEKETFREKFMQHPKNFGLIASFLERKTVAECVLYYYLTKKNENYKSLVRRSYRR
Chain of TACE (ADAM-17) (P78536 215-824): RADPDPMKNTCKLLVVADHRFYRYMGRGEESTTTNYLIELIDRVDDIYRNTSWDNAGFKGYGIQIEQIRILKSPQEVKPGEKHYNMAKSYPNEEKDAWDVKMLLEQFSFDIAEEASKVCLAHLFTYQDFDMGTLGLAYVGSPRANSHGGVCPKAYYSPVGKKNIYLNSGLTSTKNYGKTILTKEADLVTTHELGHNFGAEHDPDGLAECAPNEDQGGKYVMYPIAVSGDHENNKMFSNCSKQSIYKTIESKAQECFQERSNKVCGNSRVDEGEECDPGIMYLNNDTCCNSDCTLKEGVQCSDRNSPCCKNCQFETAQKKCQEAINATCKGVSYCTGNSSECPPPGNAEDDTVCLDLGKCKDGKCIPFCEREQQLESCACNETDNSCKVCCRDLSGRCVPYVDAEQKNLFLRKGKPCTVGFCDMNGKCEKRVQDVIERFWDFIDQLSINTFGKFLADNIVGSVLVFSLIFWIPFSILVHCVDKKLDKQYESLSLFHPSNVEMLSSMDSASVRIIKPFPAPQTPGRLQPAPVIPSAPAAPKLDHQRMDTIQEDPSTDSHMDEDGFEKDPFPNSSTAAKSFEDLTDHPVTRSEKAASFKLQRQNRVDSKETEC
T1 sequence (P08254 100-272 limits assumed): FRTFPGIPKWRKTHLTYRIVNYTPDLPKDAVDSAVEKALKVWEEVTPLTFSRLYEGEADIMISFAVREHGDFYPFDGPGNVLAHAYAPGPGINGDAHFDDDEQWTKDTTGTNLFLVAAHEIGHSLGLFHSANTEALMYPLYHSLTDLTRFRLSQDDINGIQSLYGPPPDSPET
Chain of ColQ1-FL (B9J3S4 94-965 limits assumed): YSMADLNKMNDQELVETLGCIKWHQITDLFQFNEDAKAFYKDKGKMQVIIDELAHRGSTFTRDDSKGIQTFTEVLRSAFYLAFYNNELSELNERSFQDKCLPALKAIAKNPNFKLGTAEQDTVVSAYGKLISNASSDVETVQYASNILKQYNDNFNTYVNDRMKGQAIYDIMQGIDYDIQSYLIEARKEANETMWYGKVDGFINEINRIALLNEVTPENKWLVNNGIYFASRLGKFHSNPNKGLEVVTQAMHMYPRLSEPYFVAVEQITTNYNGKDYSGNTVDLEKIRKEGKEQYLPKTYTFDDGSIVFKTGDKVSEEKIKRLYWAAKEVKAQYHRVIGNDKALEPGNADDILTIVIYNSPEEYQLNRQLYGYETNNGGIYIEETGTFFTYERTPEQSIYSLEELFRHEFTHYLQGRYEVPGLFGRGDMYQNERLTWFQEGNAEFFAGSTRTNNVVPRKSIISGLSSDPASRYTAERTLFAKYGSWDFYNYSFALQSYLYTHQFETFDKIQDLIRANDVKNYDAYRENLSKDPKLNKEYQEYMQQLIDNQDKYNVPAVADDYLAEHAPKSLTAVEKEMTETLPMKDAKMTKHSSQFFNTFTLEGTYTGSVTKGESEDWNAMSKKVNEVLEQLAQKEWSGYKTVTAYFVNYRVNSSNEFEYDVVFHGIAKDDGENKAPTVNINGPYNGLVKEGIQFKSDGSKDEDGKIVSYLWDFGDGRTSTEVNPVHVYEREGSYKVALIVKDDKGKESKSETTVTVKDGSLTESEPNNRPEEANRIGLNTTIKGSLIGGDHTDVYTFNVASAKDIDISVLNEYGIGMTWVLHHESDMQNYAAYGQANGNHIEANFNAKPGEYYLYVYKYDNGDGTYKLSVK

In the case of CC(NC(=O)C(Cc1ccccc1)NC(=O)NS(=O)(=O)c1ccc(F)cc1)C(=O)Nc1nnc(S)s1 (stereo not drawn) [Compound 3], the Ki [1] is listed as 0.1 µM.

For CC(=O)c1ccc(NC(=O)CS)cc1 [Compound 4b], the IC50 ([2]; recently identified inhibitors) is listed as 0.017 µM.

In the case of CC(=O)c1ccc(N2C(=O)CC(S)C2=O)cc1 (stereo not drawn) [Compound 5], the “% of inhibition at 100 μM (ColH)” value ([2]; 100 μM) is given as 96%.

With CC(=O)Nc1ccccc1OCc1cn(CCNC(=O)C(CC(C)C)C(=O)NO)nn1 (stereo not drawn) [Compound 27, N-[2-[4-[(2-Acetamidophenoxy)methyl]triazol-1-yl]ethyl]-2-(hydroxycarbamoyl)-4-methyl-pentanamide] the “Concentration above which Col I chains were maintained” value [3] was > 0.8 µM, the “Stability under NHDF infection assay conditions” value [4] was “no compound degradation; also recorded: confirmed, however, the stability” and the IC50 [5] was > 200 µM. The IC50 [6] was > 100 µM, the IC50 [7] was > 100 µM and the “Effect on cell morphology and ECM collagen content of infected NHDF cells” value ([8]; B. cereus infection, 5 h) was “neither able to rescue cell morphology nor able to maintain the collagen content of the ECM”. The IC50 [9] was > 100 µM, the Ki [10] was 11.6 ± 0.4 µM and the inhibition at 100 µM [10] was 84 ± 2%. The Ki [11] was 31 ± 1 µM, the inhibition at 100 µM [11] was 71 ± 7% and the IC50 [12] was > 100 µM. The MIC50 ([13]; AH187, BHI medium, 37 °C, 48 h, 200–3 μM) was 200 µM (≈ 86.5 µg/mL), the IC50 [14] was > 100 µM and the IC50 [15] was > 100 µM. For the same compound, the IC50 [16] was > 100 µM, the IC50 [17] was > 100 µM and the “Inhibitory effect on gelatinolytic activity of secreted collagenases” value [18] was “no inhibitory effect on the collagenase in the zymography at all tested concentrations; also recorded: no inhibition of the collagenase in the gelatin zymography was detected”. For the same compound, the “Reversibility of inhibition, ColH” value [19] was “rapidly reversible inhibitors”, the “Reversibility of inhibition, ColA-CU” value [20] was “rapidly reversible inhibitors” and the IC50 [21] was > 200 µM. The “Reversibility of inhibition, ColQ1-CU” value [22] was “rapidly reversible inhibitors”, the IC50 [23] was 1.2 ± 0.1 µM and the Ki [23] was 0.1 ± 0.02 µM. It also gave an inhibition at 100 µM ([23]; read-out: % Inhibition (ColQ1-CU) Mean) of 97 ± 2%, a Ki [24] of 3.4 ± 4 µM and an inhibition at 100 µM [24] of 93 ± 2%.

With CNC(=O)[C@H](Cc1c[nH]c2ccccc12)NC(=O)[C@@H](CC(=O)NO)CC(C)C [Ilomastat, reference compound] the “Covalent modification of ColQ1-CU” value [25] was “No molecular masses displayed a mass shift indicating a covalently bound inhibitor”.

With O=P([O-])(O)C(Sc1ccc(Cl)cc1)P(=O)([O-])O.[Na+].[Na+] [Tiludronate disodium, reference compound] the IC50 [6] was > 100 µM, the “Concentration showing dose-dependent effects on NHDF morphology, fibrillar ECM collagen content and LDH release” value [8] was ≥ 100 μM and the IC50 [9] was > 100 µM. The inhibition at 100 µM [10] was 91 ± 2%, the inhibition at 100 µM [11] was 28 ± 7% and the IC50 [12] was > 100 µM. For the same compound, the MIC50 ([13]; AH187, 48 h) was 200 µM, the IC50 [15] was > 100 µM and the IC50 [16] was 50 ± 10 µM. The “Survival rate of larvae treated with compound in PBS” value [26] was 100%, the IC50 [27] was > 100 µM and the IC50 [17] was > 100 µM. The “Increase in survival of infected larvae” value ([28]; 100 μM) was 40%, the “Survival of infected larvae vs control without inhibitor” value ([28]; 37 °C, 3 days) was “ameliorated the survival of the larvae in a dose-dependent manner” and the “Concentration giving complete inhibition of gelatinolytic activity” value [18] was 100 µM. The inhibition at 100 µM [23] was 63 ± 3% and the inhibition at 100 µM [24] was 72 ± 2%.
